The molecules below were run against T1, GST-labeled recombinant human FXR protein (Homo sapiens, UniProt Q96RI1) (assay: Agonistic activity on FXR receptor (GST-FXR / SRC-1 bead assay, protein level)). Settings: 0.4 nM FXR, 30 nM SRC-1, protein level.
T1 construct: purchased Invitroren (so in the source)
T1 sequence (Q96RI1 262-486 limits assumed): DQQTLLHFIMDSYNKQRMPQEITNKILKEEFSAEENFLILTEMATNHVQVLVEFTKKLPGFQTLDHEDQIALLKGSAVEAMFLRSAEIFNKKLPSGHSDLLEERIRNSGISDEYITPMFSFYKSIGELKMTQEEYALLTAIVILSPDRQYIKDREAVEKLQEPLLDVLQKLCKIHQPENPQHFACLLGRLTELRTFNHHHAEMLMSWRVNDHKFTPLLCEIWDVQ
T1 sequence (Q15788 676-700 partner limits assumed): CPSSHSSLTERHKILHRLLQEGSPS
Format: biochemical
Method: Experimental procedures: FXR (GST-labeled recombinant human FXR protein, manufacturer: Invitroren, Item number: PV4835) and SRC-1 (steroid receptor co-activator-1) are thawed on ice. Three solutions of ABC are prepared by a buffer solution, solution A, 0.4 n M FXR and 30 nM SRC-1; solution B, 10 ug/ml Acceptor Beads; solution C, 10 ug/ml Donor Beads. Solution A is added to the plate at 15 uL per well. It is incubated at room temperature for 1 hour. Solution B is added to the plate at 7.5 uL per well. It is incubated at room temperature for 1 hour. Solution C is added to the plate at 7.5 uL per well. It is incubated at room temperature for 1 hour. It is read from the microplate reader Envision. The data are curve fitted by using Prism 5.0 to calculate the EC50.

Row | EC50 [nM] | Compound
1 | 2410 | CC(C)c1onc(-c2c(Cl)cccc2Cl)c1COc1cnc(C2(O)CC(c3cccc(C(=O)O)c3)C2)cn1 (stereo not shown) [TM-06, 3-(3-(5-(5-isopropyl-3-(2,6-dichlorophenyl)isoxazole-4-ylmethoxy)-2-pyrazine)-1-hydroxycyclobutane) benzoic acid]
2 | 2320 | O=C(O)c1cccc(N2CC(O)(c3cnc(OCc4c(-c5c(Cl)cccc5Cl)noc4C4CC4)cn3)C2)c1 [TM-02, 3-(3-(5-((5-cyclopropyl-3-(2,6-dichlorophenyl)isoxazol-4-yl)methoxy)pyrazine-2-yl)-3-hydroxyazetidin-1-yl) benzoic acid]
3 | 480 | Cc1cc(C(=O)O)cc(C2CC(O)(c3cnc(OCc4c(-c5c(Cl)cccc5Cl)noc4C(C)C)cn3)C2)c1 (stereo not shown) [TM-09, 3-(3-(5-((3-(2,6-dichlorophenyl)-5-isopropylisoxazol-4-yl)methoxy)pyrazine-2-yl)-3-hydroxycyclobutyl)-5-methyl benzoic acid]
4 | 540 | O=C(O)c1cccc(C2CC(O)(c3cnc(OCc4c(-c5c(Cl)cccc5Cl)noc4C4CC4)cn3)C2)c1 (stereo not shown) [TM-01, 3-(3-(5-(5-cyclopropyl-3-(2,6-dichlorophenyl)isoxazole-4-ylmethoxy)-2-pyrazine)-1-hydroxycyclobutane) benzoic acid]

Reference: US12486259B2, “FXR agonist having pyrazine structure, and preparation method and use” (JIANGSU TASLY DIYI PHARMACEUTICAL CO., LTD., priority 2020, dated 2025)
